The structures appear in SMILES notation. Counter-ions that a name gives are not always drawn.

For the first assay, the system named is 293T-HRE-GFP-luc cells. The assay is described as follows: Cell-based reporter assay for IC50 determinations (HRE-luciferase, hypoxia). The following applies: 6 h, 6 hrs hypoxia (1% O2), luminescence. The procedure:
Cell-Based Reporter Assay for IC50 Determinations
293T-HRE-GFP-luc cells were routinely maintained in DMEM media (high glucose version with GlutaMAX and HEPES, Gibco, catalog #10564) supplemented with 10% fetal bovine serum and 2 μg/mL puromycin (Invitrogen, catalog #A11138-03) using a humidified incubator (normoxia conditions consisting of 37° C., 5% CO2 and ambient O2).
In preparation for the reporter assay, cells were harvested and resuspended in DMEM media (high glucose version with GlutaMAX and HEPES) supplemented with 10% fetal bovine serum. Cells were inoculated into 384-well white Culturplates (Perkin Elmer catalog #6007680) at a density of 12,000 cells/well in a volume of […]. The microplates were incubated overnight (approximately 17-19 hours) at 37° C. with 5% CO2 and ambient O2. Stock solutions of the test compounds were prepared in DMSO (Sigma, Catalog #D2650) and serially diluted 1:3 using DMSO. Compounds were additionally diluted (1:50) with culturemedium and 10 µL were added per well to the Culturplate. Following a 30 min. incubation under normoxia conditions, the plates were incubated in hypoxia for 6 hrs. (37° C., 5% CO2 and 1% O2). Steadylite Plus (Perkin Elmer, catalog #6016751) was then added ([…]), the plates were mixed on an orbital shaker at room temperature in the dark for 15 min., and luminescence was measured using an Envision plate reader (Perkin Elmer). IC50 values were calculated using a four-parameter logistic curve fit. Results are shown below in Table 2; ND indicates no data.
On the technique in general: In a reporter assay the amount or activity of a reporter protein is the signal.
What is called IC50 is the point on the concentration scale where inhibition reaches its midpoint. The low end stands for greater potency in that assay, the high end for weaker potency in that assay. `O=c1ccc(-c2nc(-c3ccc(OC(F)(F)F)cc3)no2)nn1Cc1ccnc(N2CCNCC2)c1` [Example 1]: the IC50 was under 100 nM.

On to `CN1CCN(c2cc(Cn3nc(-c4nc(-c5ccc(OC(F)(F)F)cc5)no4)ccc3=O)ccn2)CC1` [Example 2], for which the IC50 was under 100 nM. `CN1CCN(c2cc(Cn3nc(C(=O)Nc4ccc(OC(F)(F)F)cc4)ccc3=O)ccn2)CC1` [Example 3, 1-(2-(4-Methylpiperazin-1-yl)pyridin-4-yl)methyl)-6-oxo-N-(4-(trifluoromethoxy)phenyl)-1,6-dihydropyridazine-3-carboxamide bis trifluoroacetate salt]: the IC50 was in the range of 100 to 1000 nM. On the same count and under the same terms, then `CN1CCN(c2cccc(Cn3nc(C(=O)Nc4ccc(OC(F)(F)F)cc4)ccc3=O)c2)CC1` [Example 4, 1-(3-(4-Methylpiperazin-1-yl)benzyl)-6-oxo-N-(4-(trifluoromethoxy)phenyl)-1,6-dihydropyridazine-3-carboxamide trifluoroacetate salt], with under 100 nM. On the same count and under the same terms, the same measure for `Cc1ccc(-c2nc(-c3ccc(OC(F)(F)F)cc3)no2)c(=O)n1Cc1ccnc(N2CCN(C)CC2)c1` [Example 5, 1-methyl-4-(4-((6-methyl-2-oxo-3-(3-(4-(trifluoromethoxy)phenyl)-1,2,4-oxadiazol-5-yl)pyridin-1(2H)-yl)methyl)pyridin-1-ium-2-yl)piperazin-1-ium bis-trifluoroacetate]: under 100 nM. `Cc1ccc(-c2nc(-c3ccc(OC(F)(F)F)cc3)no2)c(=O)n1Cc1cccc(N2CCN(C)CC2)c1` [Example 6, 1-Methyl-4-(3-((6-methyl-2-oxo-3-(3-(4-(trifluoromethoxy)phenyl)-1,2,4-oxadiazol-5-yl)pyridin-1(2H)-yl)methyl)phenyl)piperazin-1-ium trifluoroacetate] returned an IC50 of under 100 nM.

Regarding `Cc1ccc(C(=O)Nc2ccc(OC(F)(F)F)cc2)c(=O)n1Cc1ccnc(N2CCN(C)CC2)c1` [Example 8, 1-methyl-4-(4-((6-methyl-2-oxo-3-((4-(trifluoromethoxy)phenyl)carbamoyl)pyridin-1(2H)-yl)methyl)pyridin-1-ium-2-yl)piperazin-1-ium bis-trifluoroacetate], the IC50 is under 100 nM. For the compound `CN1CCN(c2cc(Cn3cccc(C(=O)Nc4ccc(OC(F)(F)F)cc4)c3=O)ccn2)CC1` [Example 9, 1-methyl-4-(4-((2-oxo-3-((4-(trifluoromethoxy)phenyl)carbamoyl)pyridin-1(2H)-yl)methyl)pyridin-1-ium-2-yl)piperazin-1-ium bis-trifluoroacetate], the IC50 fell in the range of 100 to 1000 nM. Same read-out and setting: the same measure for `Cc1ccc(C(=O)Nc2ccc(OC(F)(F)F)cc2)c(=O)n1Cc1cccc(N2CCN(C)CC2)c1` [Example 10, 1-Methyl-4-(3-((6-methyl-2-oxo-3-((4-(trifluoromethoxy)phenyl)carbamoyl)pyridin-1(2H)-yl)methyl)phenyl)piperazin-1-ium trifluoroacetate]: under 100 nM; for `CN1CCN(c2cccc(Cn3cccc(C(=O)Nc4ccc(OC(F)(F)F)cc4)c3=O)c2)CC1` [Example 11, 1-Methyl-4-(3-((2-oxo-3-((4-(trifluoromethoxy)phenyl)carbamoyl)pyridin-1(2H)-yl)methyl)phenyl)piperazin-1-ium trifluoroacetate]: under 100 nM. The same measure, in the same setting: the same measure for `O=c1ccc(-c2nc(-c3ccc(OC(F)(F)F)cc3)no2)nn1Cc1ccnc(N2CCOCC2)c1` [Example 12, 2-((2-Morpholinopyridin-4-yl)methyl)-6-(3-(4-(trifluoromethoxy)phenyl)-1,2,4-oxadiazol-5-yl)pyridazin-3(2H)-one]: under 100 nM. On the same count and under the same terms, the same measure for `CN1CCN(c2cccc(Cn3nc(-c4nc(-c5ccc(OC(F)(F)F)cc5)no4)ccc3=O)c2)CC1` [Example 13, 2-(3-(4-Methylpiperazin-1-yl)benzyl)-6-(3-(4-(trifluoromethoxy)phenyl)-1,2,4-oxadiazol-5-yl)pyridazin-3(2H)-one]: under 100 nM; for `O=c1ccc(-c2nc(-c3ccc(OC(F)(F)F)cc3)no2)nn1Cc1cccc(N2CCOCC2)c1` [Example 14, 2-(3-Morpholinobenzyl)-6-(3-(4-(trifluoromethoxy)phenyl)-1,2,4-oxadiazol-5-yl)pyridazin-3(2H)-one]: under 100 nM; for `Cc1ccc(-c2nc(-c3ccc(OC(F)(F)F)cc3)no2)c(=O)n1Cc1ccnc(N2CCCCC2)c1` [Example 15, 4-((6-Methyl-2-oxo-3-(3-(4-(trifluoromethoxy)phenyl)-1,2,4-oxadiazol-5-yl)pyridin-1(2H)-yl)methyl)-2-(piperidin-1-yl)pyridin-1-ium trifluoroacetate]: under 100 nM. `Cc1ccc(-c2nc(-c3ccc(OC(F)(F)F)cc3)no2)c(=O)n1Cc1ccnc(N2CCCC2)c1` [Example 16, 4-((6-methyl-2-oxo-3-(3-(4-(trifluoromethoxy)phenyl)-1,2,4-oxadiazol-5-yl)pyridin-1(2H)-yl)methyl)-2-(pyrrolidin-1-yl)pyridin-1-ium trifluoroacetate] displayed an IC50 of under 100 nM.

In turn, `COCCCNc1cc(Cn2c(C)ccc(-c3nc(-c4ccc(OC(F)(F)F)cc4)no3)c2=O)ccn1` [Example 17, 2-((3-Methoxypropyl)amino)-4-((6-methyl-2-oxo-3-(3-(4-(trifluoromethoxy)phenyl)-1,2,4-oxadiazol-5-yl)pyridin-1(2H)-yl)methyl)pyridin-1-ium trifluoroacetate] had an IC50 of 100 to 1000 nM. Same read-out and setting: then `Cc1ccc(-c2nc(-c3ccc(OC(F)(F)F)cc3)no2)c(=O)n1Cc1ccnc(N2CCOCC2)c1` [Example 18, 4-((6-Methyl-2-oxo-3-(3-(4-(trifluoromethoxy)phenyl)-1,2,4-oxadiazol-5-yl)pyridin-1(2H)-yl)methyl)-2-morpholinopyridin-1-ium trifluoroacetate], with under 100 nM. The same measure, in the same setting: then `Cc1cnc(-c2nc(-c3ccc(OC(F)(F)F)cc3)no2)nc1Cc1cccc(N2CCN(C)CC2)c1` [Example 19, 5-(5-methyl-4-(3-(4-methylpiperazin-1-yl)benzyl)pyrimidin-2-yl)-3-(4-(trifluoromethoxy)phenyl)-1,2,4-oxadiazole], with under 100 nM. `CN1CCN(c2cc(Cn3cccc(-c4nc(-c5ccc(OC(F)(F)F)cc5)no4)c3=O)ccn2)CC1` [Example 20, 1-((2-(4-methylpiperazin-1-yl)pyridin-4-yl)methyl)-3-(3-(4-(trifluoromethoxy)phenyl)-1,2,4-oxadiazol-5-yl)pyridin-2(1H)-one] came in with an IC50 of 100 to 1000 nM.

For the compound `Cc1ccc(-c2nnc(-c3ccc(OC(F)(F)F)cc3)o2)c(=O)n1Cc1ccnc(N2CCN(C)CC2)c1` [Example 21, 6-methyl-1-((2-(4-methylpiperazin-1-yl)pyridin-4-yl)methyl)-3-(5-(4-(trifluoromethoxy)phenyl)-1,3,4-oxadiazol-2-yl)pyridin-2(1H)-one], the IC50 lay within 1000 to 10000 nM. Same read-out and setting: then `Cc1ccc(-c2nc(-c3ccc(OC(F)(F)F)cc3)no2)c(=O)n1Cc1cccc(C(N)=O)c1` [Example 22, 3-((6-Methyl-2-oxo-3-(3-(4-(trifluoromethoxy)phenyl)-1,2,4-oxadiazol-5-yl)pyridin-1(2H)-yl)methyl)benzamide], with 100 to 1000 nM; and `CNC(=O)c1cccc(Cn2c(C)ccc(-c3nc(-c4ccc(OC(F)(F)F)cc4)no3)c2=O)c1` [Example 23, N-Methyl-3-((6-methyl-2-oxo-3-(3-(4-(trifluoromethoxy)phenyl)-1,2,4-oxadiazol-5-yl)pyridin-1(2H)-yl)methyl)benzamide], with 100 to 1000 nM; and `Cc1ccc(Cn2nc(-c3nc(-c4ccc(OC(F)(F)F)cc4)no3)ccc2=O)cc1` [Example 24, 2-(4-Methylbenzyl)-6-(3-(4-(trifluoromethoxy)phenyl)-1,2,4-oxadiazol-5-yl)pyridazin-3(2H)-one], with under 100 nM.

Still in this assay, the particulars now being: 6 hrs hypoxia (1% O2), luminescence.
`O=c1ccc(-c2nc(-c3ccc(OC(F)(F)F)cc3)no2)cn1Cc1cccc(C(O)CO)c1` (single isomer, unassigned) [Example 53a, (1R)- or (1S)-1-(3-(1,2-dihydroxyethyl)benzyl)-5-(3-(4-(trifluoromethoxy)phenyl)-1,2,4-oxadiazol-5-yl)pyridin-2(1H)-one]: the IC50 was under 100 nM. On the same count and under the same terms, then `O=c1ccc(-c2nc(-c3ccc(OC(F)(F)F)cc3)no2)cn1Cc1cccc(C(O)CO)c1` (single isomer, unassigned) [Example 53b, (1S)- or (1R)-1-(3-(1,2-dihydroxyethyl)benzyl)-5-(3-(4-(trifluoromethoxy)phenyl)-1,2,4-oxadiazol-5-yl)pyridin-2(1H)-one], with under 100 nM; and `O=c1ccc(-c2nc(-c3ccc(OC(F)(F)F)cc3)no2)cn1Cc1cccc(OCC(O)CO)c1` (single isomer, unassigned) [Example 55a, (2R)- or (2S)-1-(3-(2,3-dihydroxypropoxy)benzyl)-5-(3-(4-(trifluoromethoxy)phenyl)-1,2,4-oxadiazol-5-yl)pyridin-2(1H)-one], with under 100 nM.

On to `O=c1ccc(-c2nc(-c3ccc(OC(F)(F)F)cc3)no2)cn1Cc1cccc(OCC(O)CO)c1` (single isomer, unassigned) [Example 55b, (2S)- or (2R)-1-(3-(2,3-dihydroxypropoxy)benzyl)-5-(3-(4-(trifluoromethoxy)phenyl)-1,2,4-oxadiazol-5-yl)pyridin-2(1H)-one], for which the IC50 was under 100 nM.

(Values after US20140073634A1 (Institute For Applied Cancer Science/The University of …, priority 2012, published 2014).)
